According to article PMC11895359 (Alzheimer's Research & Therapy, 2025):
“And” between values parts separate entries of the source, which are not always exact repeats. Equal entries are not always repeated. Where two headings read alike, the source gives them in different places.

Columns and labels:
[1] = LC/MS measurement of CSF nicotinamide and metabolites in NEAT trial participants; settings: for Kp at 12 months / concentration at 12 months: 1500 mg; for Kp at 12 months: CSF methyl-nicotinamide as percent of plasma methyl-nicotinamide
Method: CSF samples were collected at 0 and 12 months.
The injection volume was 10 μL in triplicate.
We also measured the within-participant association between analytes. […] All bar graphs show mean and standard errors.

[2] = in vivo
Text: (§1) The NEAT trial participants were recruited at UCLA and UC Irvine and were required to meet eligibility criteria that included clinical criteria for mild cognitive impairment or mild dementia due to AD, confirmed by a CSF biomarker (CSF amyloid beta 42 (Aβ42) ≤ 200 pg/mL or a ratio of total tau to Aβ42 ≥ 0.39) [9]. […] Blood was collected from all participants at 0, 6, and 12 months after overnight fasting and plasma rapidly obtained. CSF samples were collected at 0 and 12 months. Plasma and CSF samples were stored at −80 °C until further processing. All samples were included in analysis, with an interval from last dose of drug or placebo ranging from 6 to 432 h.
(§2) Each calibration dilution contained IS at a constant concentration of 1 μM. IS was also added to each patient sample to a final concentration of 0.5 μM. All solutions and QC samples were stored at −20 °C. The lower limit of quantification for each analyte was determined by finding the lowest calibration curve concentration that could both be distinguished with 95% confidence from blank readings and have a signal-to-noise ratio greater than 8 to 1 [10].
(§3) Protein was precipitated by adding 160 μL of −20 °C 99.7% acetonitrile-0.3% formic acid to the IS-sample mix. Samples were centrifuged for 20 min at 4 °C at 17,000 g. 40 μL of the supernatant was then diluted fivefold with 200 μL of 0.3% formic acid in an autosampler well plate (Waters186002643). All plasma and CSF analytes were determined simultaneously for groups of 4–20 participants from the 46 participants without knowledge of their treatment assignment.
(§4) Samples were analyzed on a Waters Acquity UPLC Quattro Premier mass spectrometer in triple quadrupole electrospray positive (ESI +) mode with an Acquity CSH™ Fluoro-Phenyl (2.1 × 50 mm, 1.7 μm) column. For liquid chromatography separation, we modified the method of Chu et al. (2021). We used 0.3% formic acid in water as the mobile A phase, and 99.7% acetonitrile/0.3% formic acid as the mobile B phase. The injection volume was 10 μL in triplicate. The sample elution gradient was programmed as 0 – 0.5 min. in 100% A; 0.5–2.5 min, linear to 95% B; re-equilibrated from 2.5–4.5 min. in 100% A. The flow rate was 0.3 mL/min, and column temperature was 50 °C.
(§5) Microsoft Excel (Version 16.82, Microsoft, Redmond, WA, USA) was used for data management and statistical analysis. Treatment allocation was unblinded after all sample analyte levels were completed by mass spectrometry. We compared the randomized placebo and treatment groups for main analyte effects by two-tailed unpaired Student’s T Tests, with significance at p < 0.05, without adjustment for multiple comparisons in this exploratory analysis. […] We also measured the within-participant association between analytes. […] All bar graphs show mean and standard errors.

[3] = LC/MS measurement of plasma nicotinamide and metabolites in NEAT trial participants
Text: as §1, §2, §3, §4, §5

Sirt1 = settings: cited from earlier work
[4] = design: method as in Galla et al. 16; settings: ref Galla et al. 16, cited from earlier work
[5] = cited from earlier work
[6] = target: nicotinamide N-methyl transferase; settings: competes with nicotinamide; cited from earlier work
[7] = test system: nicotinamide N-methyl transferase; settings: cited from earlier work
[8] = obtained simultaneously with nicotinamide by LC/MS
[9] = TX 1500mg, values below limit of quantification set to 0.1 uM, listed as 1-Methynicotinamide

NC(=O)c1ccc[n+]([C@@H]2O[C@H](COP(=O)([O-])O)[C@@H](O)[C@H]2O)c1 [nicotinamide mononucleotide]
CSF measure ([1]; in vivo): below our limits of detection | Plasma measure [2]: below our limits of detection

O=C(O)c1cccnc1 [nicotinic acid]
Plasma measure [3, 8]: below our limits of detection | CSF measure [1, 8]: below our limits of detection

C[n+]1cccc(C(N)=O)c1 [methyl-nicotinamide, 1-methyl-nicotinamide]
Sirt1 binding and stabilization (Sirt1): binds to and stabilizes Sirt1 | CSF analyte concentration ([4]; n = 10, ± S.D.): 0.039 ± 0.025 µM | CSF methyl-nicotinamide ([4]; participants without AD): around 39 nM | Fold increase of plasma methyl-nicotinamide above baseline in 6 of 7 nicotinamide unelevated participants ([3]; 12 months): at least 127 fold | Plasma methyl-nicotinamide relative to mean plasma nicotinamide, drug elevated subgroup ([3]; 12 months, 125/86): 1.5 fold | Fold increase of plasma methyl-nicotinamide above baseline and placebo, drug elevated subgroup ([3]; 12 months, 125/<0.1): ≥ 1250 fold | Plasma 1-Methynicotinamide, Month 6, individual participant [3, 9]: 72.2 µM and 6.7 µM and 98.7 µM and 8.5 µM and 73.1 µM and 120.1 µM and 30.7 µM and 77.4 µM and 114.1 µM and 160.6 µM and 61.9 µM and 130.4 µM and 151.9 µM and 186.7 µM and 248.2 µM and 186.6 µM and 191.6 µM and 68.1 µM and 186.9 µM | Plasma 1-Methynicotinamide, Month 12, individual participant [3, 9]: 101.4 µM and 6.8 µM and 0.5 µM and 93.1 µM and 19.8 µM and 119.3 µM and 87.2 µM and 118.8 µM and 0.1 µM and 127.8 µM and 33.8 µM and 71.4 µM and 101.3 µM and 15.3 µM and 73.9 µM and 116.0 µM and 293.9 µM and 219.6 µM and 242.1 µM and 152.9 µM and 1.2 µM and 76.9 µM and 15.0 µM | Plasma analyte concentration, this work baseline ([3]; baseline before treatment, n = 47, ± S.D.): 0.14 ± 0.03 µM | concentration at 12 months ([3]; human, in vivo, 1500 mg BID, Mean plasma methyl-nicotinamide in 6 of 7 treated participants without measurable plasma nicotinamide, 12 months): 12.7 µM | concentration at 12 months ([3]; human, in vivo, 1500 mg, Mean plasma methyl-nicotinamide, plasma nicotinamide elevated subgroup, treated, 12 months): 125 µM | concentration at 12 months ([3]; human, in vivo, 1500 mg, Mean plasma methyl-nicotinamide, plasma nicotinamide unelevated subgroup, treated, 9 participants, 12 months): 37 µM | concentration at 12 months ([3]; human, in vivo, 1500 mg, Plasma methyl-nicotinamide range in participants with elevated level, nicotinamide treated, 12 months): 6 to 294 µM | concentration at 0 months ([3]; human, in vivo, Plasma analyte concentration, this work baseline, baseline before treatment, n = 47, ± S.D.): 0.14 µM | concentration at 6 months ([3]; human, in vivo, po, 1500 mg, Mean plasma methyl-nicotinamide, nicotinamide-treated participants, 1500 mg PO BID, 6 months): 114 µM | concentration at 12 months ([3]; human, in vivo, po, 1500 mg, Mean plasma methyl-nicotinamide, nicotinamide-treated participants, 1500 mg PO BID, 12 months): 91 µM | Fold increase of mean plasma methyl-nicotinamide ([3]; treated, 6 and 12 months): > 600 fold | Percent of treated participants with CSF methyl-nicotinamide seen ([1]; 12 months, n = 9 of 19): 47% | Ratio of elevated plasma methyl-nicotinamide to CSF methyl-nicotinamide ([1]; 125/3.4, 12 months): 37 | CSF 1-Methynicotinamide, Month 12, individual participant [1, 9]: 0.1 µM and 5.9 µM and 6.5 µM and 4.1 µM and 5.6 µM and 5.7 µM and 1.4 µM and 1.3 µM and 6.4 µM and 7.5 µM and 9.2 µM and 3.6 µM | CSF methyl-nicotinamide as percent of CSF nicotinamide ([1]; drug elevated subgroup, 3.4/57): 6% | Kp at 12 months ([1]; human, in vivo, drug elevated subgroup, 3.4 vs 125 μM): 0.03 | Kp at 12 months ([1]; human, in vivo, drug unelevated subgroup, 2.4 vs plasma 37 μM): 0.06 | concentration at 12 months ([1]; human, in vivo, CSF methyl-nicotinamide range in participants with elevated level, nicotinamide treated, 12 months): 3 to 10 µM | concentration at 12 months ([1]; human, in vivo, Mean CSF methyl-nicotinamide, CSF nicotinamide elevated subgroup, treated, 6 of 19 participants, 12 months): 3.4 µM | concentration at 12 months ([1]; human, in vivo, Mean CSF methyl-nicotinamide, CSF nicotinamide unelevated subgroup, treated, 12 months): 2.4 µM | concentration at 12 months ([1]; human, in vivo, Mean CSF methyl-nicotinamide, all nicotinamide-treated participants, 12 months): 3.1 µM | concentration at 0 months ([1]; human, in vivo, CSF analyte concentration, this work baseline, baseline before treatment, n = 47): ≤ 0.1 µM | Fold increase of mean CSF methyl-nicotinamide ([1]; treated, 12 months, vs 0.1 μM limit of quantification): at least 31 fold | Plasma analyte concentration ([5]; n = 10, ± S.D., ref Clement et al. 14): 0.05 ± 0.01 µM | Plasma analyte concentration ([5]; n = 10, ± S.D., ref Galla et al. 16): 0.185 ± 0.116 µM | Plasma analyte concentration ([5]; n = 100, ± S.D., ref Seyedsadjadi et al. 15): 0.033 ± 0.012 µM | Plasma analyte concentration ([5]; n = 659, ± S.D., ref Chu et al. 12): 0.1 ± 0.002 µM

COc1ccc(C(N)=O)cn1 [JBSNF-000088, 6-methyloxy-nicotinamide]
IC50 [6]: 1800 nM | Reduction of methyl-nicotinamide in mouse plasma [7]: 50% | Effect on body weight ([7]; mouse): reduced body weight
